From US10538555B2, “Macrocyclic inhibitors of the PD-1/PD-L1 and CD80(B7-1)/PD-L1 protein/protein interactions” (BRISTOL-MYERS SQUIBB COMPANY, priority 2014, dated 2020)
Where two headings read alike, the source gives them in different places. *1 amine or outer side, *2 acyl side, *3 side chain or, on linkers, in order; H or OH if unused. Where a SMILES comes first, the peptide text is derived from it. Bridges are numbered along the chain shown (N, C = ends). [ ]: non-standard residue; d: D form. ξ: configuration not given here. Trp(1-CH2COOH) = N[C@@H](Cc1cn(CC(=O)O)c2ccccc12)C(=O)O; Phe(3,4,5-F3) = N[C@@H](Cc1cc(F)c(F)c(F)c1)C(=O)O; Trp(7-aza) = N[C@@H](Cc1c[nH]c2ncccc12)C(=O)O; NMePhe(4-F) = CN[C@@H](Cc1ccc(F)cc1)C(=O)O; Phe(4-F) = N[C@@H](Cc1ccc(F)cc1)C(=O)O; d(cisHyp) = O=C(O)[C@H]1C[C@@H](O)CN1; Bta = N[C@@H](Cc1csc2ccccc12)C(=O)O; Hyp = O=C(O)[C@@H]1C[C@@H](O)CN1; NMeF = CN[C@@H](Cc1ccccc1)C(=O)O; X1 = O=C([C@H]1COCCN1[*:1])[*:2]; dHyp = O=C(O)[C@H]1C[C@H](O)CN1; NMehSer = CN[C@@H](CCO)C(=O)O; Thr(3ξ) = CC(O)[C@H](N)C(=O)O; NMeNle = CCCC[C@H](NC)C(=O)O; dPip = O=C(O)[C@H]1CCCCN1; hSer = N[C@@H](CCO)C(=O)O; NMeA = CN[C@@H](C)C(=O)O; Orn = NCCC[C@H](N)C(=O)O; dThz = O=C(O)[C@H]1CSCN1; Dab = NCC[C@H](N)C(=O)O; Dap = NC[C@H](N)C(=O)O; Sar = CNCC(=O)O

Target: T1, Human PD-L1/PD-1 (Homo sapiens, UniProt Q9NZQ7)
T1 construct: TVMV protease cleavage site (C); made in house; host or cells: HEK293T cells
Assay: HTRF Human PD-L1/PD-1 binding assay (PD-1-Ig/PD-L1-His)
Settings: PD-L1-His 10 nM, PD-1-Ig 20 nM
How it was run: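 Truncated Fc-fused human PD-1 (aa 25-167) at 20 nM and His-tagged PD-L1 (aa 18-239) at 10 nM final are used, with peptides preincubated 15 min with PD-L1. Detection uses europium-cryptate anti-Ig and APC anti-His antibodies; 665/620 nm ratio.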

[1] = class symbol, read-out: HTRF Human PD-L1/PD-1 Binding Assay IC50 Range

T1 sequence (Q9NZQ7 with tags, fused parts or gaps): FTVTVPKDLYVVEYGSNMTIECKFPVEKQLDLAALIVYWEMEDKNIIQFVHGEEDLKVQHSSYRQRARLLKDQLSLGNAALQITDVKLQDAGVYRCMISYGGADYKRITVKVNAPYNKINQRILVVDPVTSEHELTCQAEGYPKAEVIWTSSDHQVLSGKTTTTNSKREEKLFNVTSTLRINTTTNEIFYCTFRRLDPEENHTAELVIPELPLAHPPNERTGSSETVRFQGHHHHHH

SMILES | IC50 [1] [nM] | IC50 (read-out: HTRF Human PD-L1/PD-1 Binding Assay IC50) [nM]
CCCC[C@H]1C(=O)N(C)[C@@H](CCCC)C(=O)N[C@@H](CN)C(=O)N[C@H](C(=O)NCC(N)=O)CSCC(=O)N[C@@H](Cc2ccc(O)cc2)C(=O)N(C)[C@@H](C)C(=O)N[C@@H](CC(N)=O)C(=O)N2CCC[C@H]2C(=O)N[C@@H](CN)C(=O)N[C@@H](CCC(N)=O)C(=O)N2C[C@H](O)C[C@H]2C(=O)N[C@@H](Cc2c[nH]c3ccccc23)C(=O)N[C@@H](CCN)C(=O)N[C@@H](Cc2cn(CC(=O)O)c3ccccc23)C(=O)N1C [Example 5213] ({CH2CO}-Y[NMeA]NP[Dap]Q[Hyp]W[Dab][Trp(1-CH2COOH)][NMeNle][NMeNle][Dap]CG-NH2; thioether N-14) | 1 to 9.9 | 
CCCC[C@H]1C(=O)N(C)[C@@H](CCCC)C(=O)N[C@H](C)C(=O)N[C@H](C(=O)NCC(N)=O)CSCC(=O)N[C@@H](Cc2ccc(O)cc2)C(=O)N(C)[C@@H](C)C(=O)N[C@@H](CC(N)=O)C(=O)N2CCC[C@H]2C(=O)N[C@@H](Cc2c[nH]cn2)C(=O)N[C@@H](CCC(=O)O)C(=O)N2C[C@H](O)C[C@H]2C(=O)N[C@@H](Cc2c[nH]c3ccccc23)C(=O)N[C@@H](CCN)C(=O)N[C@@H](Cc2csc3ccccc23)C(=O)N1C [Example 5159] ({CH2CO}-Y[NMeA]NPHE[Hyp]W[Dab][Bta][NMeNle][NMeNle][dA]CG-NH2; thioether N-14) | 1 to 9.9 | 
CCCC[C@H]1C(=O)N2CCOC[C@@H]2C(=O)N[C@@H](CC(=O)O)C(=O)N[C@@H](C(C)C)C(=O)N(C)[C@@H](Cc2ccccc2)C(=O)N[C@@H](Cc2ccc(O)cc2)C(=O)N2CCOC[C@@H]2C(=O)N[C@@H](Cc2c[nH]c3ccccc23)C(=O)N[C@@H](Cc2ccc(O)cc2)C(=O)N[C@@H](CCCN)C(=O)N[C@H](C(=O)NCC(N)=O)CSCC(=O)N[C@@H](Cc2cc(F)c(F)c(F)c2)C(=O)N(C)[C@@H](Cc2ccccc2)C(=O)N1C [Example 9284] ({CH2CO}-[Phe(3,4,5-F3)][NMeF][NMeNle][X1]DV[NMeF]Y[X1]WY[Orn]CG-NH2; thioether N-13) | 1 to 9.9 | 
CCCC[C@H]1C(=O)N2CCC[C@@H]2C(=O)N[C@@H](CC(=O)O)C(=O)N[C@@H](C(C)C)C(=O)N(C)[C@@H](Cc2ccccc2)C(=O)N[C@@H](CCC(=O)O)C(=O)N2CCCC[C@@H]2C(=O)N[C@@H](Cc2c[nH]c3ccccc23)C(=O)N[C@@H](Cc2ccc(O)cc2)C(=O)N[C@@H](CC(N)=O)C(=O)N[C@H](C(=O)NCC(N)=O)CSCC(=O)N[C@@H](Cc2cc(F)c(F)c(F)c2)C(=O)N(C)[C@@H](Cc2ccc(F)cc2)C(=O)N1C [Example 10562] ({CH2CO}-[Phe(3,4,5-F3)][NMePhe(4-F)][NMeNle][dP]DV[NMeF]E[dPip]WYNCG-NH2; thioether N-13) | 1 to 9.9 | 
CCCC[C@H]1C(=O)N(C)CC(=O)N[C@@H](CC(N)=O)C(=O)N[C@@H](C(C)C)C(=O)N(C)[C@@H](Cc2ccccc2)C(=O)N[C@@H](Cc2ccc(O)cc2)C(=O)N(C)CC(=O)N[C@@H](Cc2c[nH]c3ncccc23)C(=O)N[C@@H](Cc2ccc(O)cc2)C(=O)N[C@@H](CC(C)C)C(=O)N[C@H](C(=O)NCC(N)=O)CSCC(=O)N[C@@H](Cc2ccccc2)C(=O)N(C)[C@@H](Cc2ccccc2)C(=O)N1C [Example 3241] ({CH2CO}-F[NMeF][NMeNle][Sar]NV[NMeF]Y[Sar][Trp(7-aza)]YLCG-NH2; thioether N-13) | 10 to 99.9 | 
CCCC[C@H]1C(=O)N2C[C@H](O)C[C@@H]2C(=O)N[C@@H](CC(=O)O)C(=O)N[C@@H](C(C)C)C(=O)N(C)[C@@H](Cc2ccccc2)C(=O)N[C@@H](Cc2ccc(O)cc2)C(=O)N2C[C@H](O)C[C@@H]2C(=O)N[C@@H](Cc2c[nH]c3ccccc23)C(=O)N[C@@H](Cc2ccc(O)cc2)C(=O)N[C@@H](CN)C(=O)N[C@H](C(=O)NCC(N)=O)CSCC(=O)N[C@@H](Cc2cc(F)c(F)c(F)c2)C(=O)N(C)[C@@H](Cc2ccccc2)C(=O)N1C [Example 9325] ({CH2CO}-[Phe(3,4,5-F3)][NMeF][NMeNle][d(cisHyp)]DV[NMeF]Y[d(cisHyp)]WY[Dap]CG-NH2; thioether N-13) | 1 to 9.9 | 
CCCC[C@H]1C(=O)N(C)CC(=O)N[C@@H](CC(=O)O)C(=O)N[C@@H](C)C(=O)N(C)[C@@H](Cc2ccccc2)C(=O)N[C@@H](Cc2ccc(O)cc2)C(=O)N2CCC[C@@H]2C(=O)N[C@@H](Cc2c[nH]c3ccccc23)C(=O)N[C@@H](Cc2ccc(O)cc2)C(=O)N[C@@H](CC(C)C)C(=O)N[C@H](C(=O)NCC(N)=O)CSCC(=O)N[C@@H](Cc2ccccc2)C(=O)N(C)[C@@H](Cc2ccccc2)C(=O)N1C [Example 10080] ({CH2CO}-F[NMeF][NMeNle][Sar]DA[NMeF]Y[dP]WYLCG-NH2; thioether N-13) | 10 to 99.9 | 
CCCC[C@H]1C(=O)N(C)[C@@H](CCCC)C(=O)N[C@@H](C)C(=O)N[C@H](C(=O)NCC(N)=O)CSCC(=O)N[C@@H](Cc2ccc(O)cc2)C(=O)N2CCCC[C@H]2C(=O)N[C@@H](CC(N)=O)C(=O)N2CCC[C@H]2C(=O)N[C@@H](Cc2cnc[nH]2)C(=O)N[C@@H](CCC(N)=O)C(=O)N2CCNC[C@H]2C(=O)N[C@@H](Cc2c[nH]c3ccccc23)C(=O)N[C@@H](CO)C(=O)N[C@@H](Cc2c[nH]c3ccccc23)C(=O)N1C [Example 1276] |  | 468
CCCC[C@H]1C(=O)N2C[C@H](O)C[C@@H]2C(=O)N[C@@H](CC(=O)O)C(=O)N[C@@H](C(C)C)C(=O)N(C)[C@@H](Cc2ccccc2)C(=O)N[C@@H](CCCN)C(=O)N2CCOC[C@@H]2C(=O)N[C@@H](Cc2c[nH]c3ccccc23)C(=O)N[C@@H](Cc2ccc(O)cc2)C(=O)N[C@@H](CCOC)C(=O)N[C@H](C(=O)NCC(N)=O)CSCC(=O)N[C@@H](Cc2cc(F)c(F)c(F)c2)C(=O)N(C)[C@@H](Cc2ccccc2)C(=O)N1C [Example 10162] ({CH2CO}-[Phe(3,4,5-F3)][NMeF][NMeNle][d(cisHyp)]DV[NMeF][Orn][X1]WY[hSer](Me)CG-NH2; thioether N-13) | 1 to 9.9 | 
CCCC[C@H]1C(=O)N(C)[C@@H](CCCC)C(=O)N(C)CC(=O)N[C@H](C(=O)NCC(N)=O)CSCC(=O)N[C@@H](Cc2ccc(O)cc2)C(=O)N(C)[C@@H](C)C(=O)N[C@@H](CC(N)=O)C(=O)N2CCC[C@H]2C(=O)N[C@@H](Cc2c[nH]cn2)C(=O)N[C@@H](CCC(N)=O)C(=O)N2C[C@H](O)C[C@H]2C(=O)N[C@@H](Cc2c[nH]c3ccccc23)C(=O)N[C@@H](CO)C(=O)N[C@@H](Cc2c[nH]c3ccccc23)C(=O)N1C [Example 5263] ({CH2CO}-Y[NMeA]NPHQ[Hyp]WSW[NMeNle][NMeNle][Sar]CG-NH2; thioether N-14) | 1000 to 10000 | 
CCCC[C@H]1C(=O)N(C)[C@@H](CCCC)C(=O)N[C@@H](CCC(=O)O)C(=O)N[C@H](C(=O)NCC(N)=O)CSCC(=O)N[C@@H](Cc2ccc(O)cc2)C(=O)N(C)[C@@H](C)C(=O)N[C@@H](CC(N)=O)C(=O)N2CCC[C@H]2C(=O)N[C@@H](CO)C(=O)N[C@@H](CCC(N)=O)C(=O)N2C[C@H](O)C[C@H]2C(=O)N[C@@H](Cc2c[nH]c3ccccc23)C(=O)N[C@@H](CO)C(=O)N[C@@H](Cc2c[nH]c3ccccc23)C(=O)N1C [Example 5204] ({CH2CO}-Y[NMeA]NPSQ[Hyp]WSW[NMeNle][NMeNle]ECG-NH2; thioether N-14) | 1 to 9.9 | 
CCCC[C@H]1C(=O)N(C)[C@@H](CCCC)C(=O)N[C@@H](CCCNC(=N)N)C(=O)N[C@H](C(=O)NCC(N)=O)CSCC(=O)N[C@@H](Cc2ccc(O)cc2)C(=O)N(C)[C@@H](C)C(=O)N[C@@H](CC(N)=O)C(=O)N2CCC[C@H]2C(=O)N[C@@H](Cc2cnc[nH]2)C(=O)N[C@@H](CC(C)C)C(=O)N2C[C@H](O)C[C@H]2C(=O)N[C@@H](Cc2c[nH]c3ccccc23)C(=O)N[C@@H](C(C)O)C(=O)N[C@@H](Cc2c[nH]c3ccccc23)C(=O)N1C (stereo partly drawn) [Example 7075] ({CH2CO}-Y[NMeA]NPHL[Hyp]W[Thr(3ξ)]W[NMeNle][NMeNle]RCG-NH2; thioether N-14) | 1 to 9.9 | 
CCCC[C@H]1C(=O)N2C[C@@H](O)C[C@@H]2C(=O)N[C@@H](CC(=O)O)C(=O)N[C@@H](C(C)C)C(=O)N(C)[C@@H](Cc2ccc(F)cc2)C(=O)N[C@@H](CCC(=O)O)C(=O)N2CCC[C@@H]2C(=O)N[C@@H](Cc2c[nH]c3ccccc23)C(=O)N[C@@H](Cc2ccc(O)cc2)C(=O)N[C@@H](CC(C)C)C(=O)N[C@H](C(=O)NCC(N)=O)CSCC(=O)N[C@@H](Cc2cc(F)c(F)c(F)c2)C(=O)N(C)[C@@H](Cc2ccccc2)C(=O)N1C [Example 10116] ({CH2CO}-[Phe(3,4,5-F3)][NMeF][NMeNle][dHyp]DV[NMePhe(4-F)]E[dP]WYLCG-NH2; thioether N-13) | 1 to 9.9 | 
CCCC[C@H]1C(=O)N2CCC[C@@H]2C(=O)N[C@@H](CC(=O)O)C(=O)N[C@@H](C(C)C)C(=O)N(C)[C@@H](CCOC)C(=O)N[C@@H](Cc2ccc(O)cc2)C(=O)N2CCC[C@@H]2C(=O)N[C@@H](Cc2c[nH]c3ccccc23)C(=O)N[C@@H](Cc2ccc(O)cc2)C(=O)N[C@@H](CC(C)C)C(=O)N[C@H](C(=O)NCC(N)=O)CSCC(=O)N[C@@H](Cc2ccc(F)cc2)C(=O)N(C)[C@@H](Cc2ccccc2)C(=O)N1C [Example 9219] ({CH2CO}-[Phe(4-F)][NMeF][NMeNle][dP]DV[NMehSer](Me)Y[dP]WYLCG-NH2; thioether N-13) | 100 to 990 | 
CCCC[C@H]1C(=O)N2CCC[C@@H]2C(=O)N[C@@H](CC(=O)O)C(=O)N[C@@H](C(C)C)C(=O)N(C)[C@@H](Cc2ccccc2)C(=O)N[C@@H](CCC(=O)O)C(=O)N2CSC[C@@H]2C(=O)N[C@@H](Cc2c[nH]c3ccccc23)C(=O)N[C@@H](Cc2ccc(O)cc2)C(=O)N[C@@H](CC(C)C)C(=O)N[C@H](C(=O)NCC(N)=O)CSCC(=O)N[C@@H](Cc2cc(F)c(F)c(F)c2)C(=O)N(C)[C@@H](Cc2ccccc2)C(=O)N1C [Example 10090] ({CH2CO}-[Phe(3,4,5-F3)][NMeF][NMeNle][dP]DV[NMeF]E[dThz]WYLCG-NH2; thioether N-13) | 1 to 9.9 | 
